The record followed here is ChEMBL document CHEMBL5726195, “Pharmaceutically active pyrazine derivatives” (2017).

In the experiment the target is T1, Serine/threonine-protein kinase Chk1 (Homo sapiens, UniProt O14757).
T1 sequence (O14757 whole entry): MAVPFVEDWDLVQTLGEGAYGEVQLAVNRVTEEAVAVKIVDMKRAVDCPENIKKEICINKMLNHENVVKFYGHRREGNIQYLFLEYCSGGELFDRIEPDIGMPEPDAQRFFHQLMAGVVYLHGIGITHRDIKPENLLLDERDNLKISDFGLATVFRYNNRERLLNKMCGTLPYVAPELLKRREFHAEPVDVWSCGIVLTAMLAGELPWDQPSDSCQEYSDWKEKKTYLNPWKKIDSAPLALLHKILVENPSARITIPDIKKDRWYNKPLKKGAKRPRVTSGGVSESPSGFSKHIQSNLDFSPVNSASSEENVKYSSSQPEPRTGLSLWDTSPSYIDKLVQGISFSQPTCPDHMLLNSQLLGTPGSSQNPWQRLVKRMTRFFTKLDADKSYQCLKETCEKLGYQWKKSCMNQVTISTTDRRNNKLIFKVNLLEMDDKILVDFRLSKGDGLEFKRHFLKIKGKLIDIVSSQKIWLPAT
The experiment is described as follows: Kinase Inhibition Asssay: Reaction Buffer:Base Reaction buffer: 20 mM Hepes (pH 7.5), 10 mM MgCl2, 1 mM EGTA, 0.02% Brij35, 0.02 mg/ml BSA, 0.1 mM Na3VO4, 2 mM DTT, 1% DMSORequired cofactors are added individually to each kinase reactionReaction Procedure:(i) Prepare indicated substrate in freshly prepared Base Reaction Buffer(ii) Deliver any required cofactors to the substrate solution above(iii) Deliver indicated kinase into the substrate solution and gently mix(iv) Deliver compounds in DMSO into the kinase reaction mixture(v) Deliver 33P-ATP (specific activity 0.01 μCi/μl final) into the reaction mixture to initiate the reaction.(vi) Incubate kinase reaction for 120 minutes at room temperature(vii) Reactions are spotted onto P81 ion exchange paper (Whatman #3698-915)(viii) Wash filters extensively in 0.1% phosphoric acid.(ix) Dry filters and measure counts in scintillation counterKinase Information:CHK-1 Genbank Accession # AF016582Recombinant full length construct, N-terminal GST tagged, purified from insect cells.No special measures were taken to activate this kinase.Final concentration in assay=0.5 nMSubstrate: CHKtidePeptide sequence: [[…]]Final concentration in assay=20 μM.

As usually defined, the IC50 is the concentration that inhibits the measured activity by half.

Take `COc1cc(CCNC[C@@H]2CCCNC2)c(Cl)cc1NC(=O)Nc1cnc(C#N)cn1`: the IC50 is 0.1 nM.
For `COc1cc(CCNC[C@H]2CCCNC2)c(Cl)cc1NC(=O)Nc1cnc(C#N)cn1`, the IC50 was 0.06 nM.
